{"source": "patent US8361997B2", "about": "“Process for preparing a crystalline form of halobetasol propionate” (Taro Pharmaceutical North America, Inc., priority 2005, dated 2013)", "key": {"[1]": {"details": "cited from earlier work"}, "[2]": {"experiment": "Stability of HPLC sample and standard solutions in diluent", "format": "physicochemical", "details": "approx. 20 mg in 100 mL diluent (45:55 v/v water and acetonitrile); room temperature for 2 days protected from sunlight", "procedure": "Approximately 20 mg of the crystalline halobetasol propionate sample to be assayed, accurately weighed, was transferred into a 100-mL volumetric flask, and the flask was filled to volume with diluent. The solution was sonicated to ensure complete dissolution. The sample solution was stable at room temperature for 2 days protected from sunlight.\nApproximately 20 mg of a crystalline halobetasol propionate standard, accurately weighed, was transferred into a 100-mL volumetric flask, and the flask was filled to volume with diluent. The solution was sonicated to ensure complete dissolution. The standard solution was stable at room temperature for 2 days protected from sunlight."}}}
{"smiles": "CCC(=O)O[C@]1(C(=O)CCl)[C@@H](C)C[C@H]2[C@@H]3C[C@H](F)C4=CC(=O)C=C[C@]4(C)[C@@]3(F)[C@@H](O)C[C@@]21C", "note": "[Halobetasol propionate, (6α,11β,16β)-21-chloro-6,9-difluoro-11-hydroxy-16-methyl-17-(1-oxopropoxy)pregna-1,4-diene-3,20-dione]", "values": [{"measurement": "solubility in organic solvents", "setting": "[1]; organic solvents", "result": "soluble"}, {"measurement": "solubility in water", "setting": "[1]; water", "result": "insoluble"}, {"measurement": "stability of the solution", "setting": "[2]", "result": "stable"}]}
